Several values for one entry are separate records, joined by “and”; a condition that tells them apart may be missing. Identical values can stand only once. Like-named read-outs stand apart in the source and are kept apart here. A value given as a limit tells only on which side of the number the result lay.

Assay in all cases: cell-based
For one assay, the target named is hNav1.6 (Homo sapiens, UniProt Q9UQD0). Type of assay: cell-based. The settings on record: for Nav1.6/Nav1.7 / IC50: Table 15; for Nav1.6/Nav1.7: ratio of PX tonic IC50 values; for IC50: read-out: PX hNav1.6 Tonic IC50.
hNav1.6, sequence (Q9UQD0 whole entry): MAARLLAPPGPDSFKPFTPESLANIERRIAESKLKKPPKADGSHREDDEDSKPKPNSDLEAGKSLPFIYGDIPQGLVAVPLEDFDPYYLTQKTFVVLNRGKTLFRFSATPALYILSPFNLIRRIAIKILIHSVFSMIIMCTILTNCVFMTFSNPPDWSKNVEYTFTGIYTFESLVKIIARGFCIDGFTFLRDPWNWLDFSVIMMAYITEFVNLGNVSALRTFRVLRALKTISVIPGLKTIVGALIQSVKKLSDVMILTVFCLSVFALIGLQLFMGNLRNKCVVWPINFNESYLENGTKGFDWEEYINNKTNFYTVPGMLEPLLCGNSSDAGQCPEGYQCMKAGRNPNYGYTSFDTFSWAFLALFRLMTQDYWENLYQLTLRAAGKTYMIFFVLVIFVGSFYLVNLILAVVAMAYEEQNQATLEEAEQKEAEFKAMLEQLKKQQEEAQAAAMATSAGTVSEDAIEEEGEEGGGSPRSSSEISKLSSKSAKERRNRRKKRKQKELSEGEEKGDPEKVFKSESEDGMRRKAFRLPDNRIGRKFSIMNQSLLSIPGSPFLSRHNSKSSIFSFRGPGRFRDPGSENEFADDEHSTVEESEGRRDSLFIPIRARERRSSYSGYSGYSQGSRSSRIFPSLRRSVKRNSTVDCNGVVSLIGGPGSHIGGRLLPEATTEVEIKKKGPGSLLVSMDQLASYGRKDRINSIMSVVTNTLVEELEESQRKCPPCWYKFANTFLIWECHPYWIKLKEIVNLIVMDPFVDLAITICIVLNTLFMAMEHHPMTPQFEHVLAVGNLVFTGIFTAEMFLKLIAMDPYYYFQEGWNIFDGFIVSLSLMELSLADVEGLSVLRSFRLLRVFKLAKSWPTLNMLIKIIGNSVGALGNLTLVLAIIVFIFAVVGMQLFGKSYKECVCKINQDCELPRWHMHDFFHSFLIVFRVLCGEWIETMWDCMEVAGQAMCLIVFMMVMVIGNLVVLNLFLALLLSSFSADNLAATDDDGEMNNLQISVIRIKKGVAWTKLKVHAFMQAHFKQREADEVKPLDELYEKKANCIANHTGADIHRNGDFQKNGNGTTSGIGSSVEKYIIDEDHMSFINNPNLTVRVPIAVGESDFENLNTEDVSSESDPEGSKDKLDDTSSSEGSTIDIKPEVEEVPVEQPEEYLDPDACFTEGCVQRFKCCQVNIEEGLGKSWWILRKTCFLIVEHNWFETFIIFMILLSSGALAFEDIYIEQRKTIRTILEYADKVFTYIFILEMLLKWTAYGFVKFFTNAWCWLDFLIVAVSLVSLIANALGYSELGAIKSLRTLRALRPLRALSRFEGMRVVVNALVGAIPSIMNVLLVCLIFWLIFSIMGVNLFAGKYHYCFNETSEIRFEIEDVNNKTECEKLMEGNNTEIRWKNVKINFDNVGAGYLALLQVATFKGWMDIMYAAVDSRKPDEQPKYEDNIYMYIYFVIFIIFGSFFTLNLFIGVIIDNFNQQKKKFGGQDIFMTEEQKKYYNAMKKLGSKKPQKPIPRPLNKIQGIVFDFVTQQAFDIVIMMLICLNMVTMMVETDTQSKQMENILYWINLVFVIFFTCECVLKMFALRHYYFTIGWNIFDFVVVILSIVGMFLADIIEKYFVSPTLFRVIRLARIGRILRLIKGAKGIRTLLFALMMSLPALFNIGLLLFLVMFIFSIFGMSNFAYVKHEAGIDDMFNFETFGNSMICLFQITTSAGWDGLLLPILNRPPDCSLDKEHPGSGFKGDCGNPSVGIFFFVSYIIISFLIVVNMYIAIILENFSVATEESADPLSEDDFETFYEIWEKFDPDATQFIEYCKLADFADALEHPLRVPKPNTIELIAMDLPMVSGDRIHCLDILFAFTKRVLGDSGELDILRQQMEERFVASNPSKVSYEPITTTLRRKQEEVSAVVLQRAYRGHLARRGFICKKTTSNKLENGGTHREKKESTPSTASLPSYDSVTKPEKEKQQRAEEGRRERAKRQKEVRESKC
Assay [1] has as its target T1, hNav1.7 (Homo sapiens, UniProt Q15858). The assay is classed as cell-based. The settings on record: for IC50: PatchXpress, read-out: PX hNav1.7 Tonic IC50; for Nav1.4/Nav1.7 / Nav1.5/Nav1.7: ratio of PX tonic IC50 values.
In assay [2] the target is T1, hNav1.7. As to conditions: ratio of IonWorks Quattro IC50 values.

T1 sequence (Q15858 whole entry): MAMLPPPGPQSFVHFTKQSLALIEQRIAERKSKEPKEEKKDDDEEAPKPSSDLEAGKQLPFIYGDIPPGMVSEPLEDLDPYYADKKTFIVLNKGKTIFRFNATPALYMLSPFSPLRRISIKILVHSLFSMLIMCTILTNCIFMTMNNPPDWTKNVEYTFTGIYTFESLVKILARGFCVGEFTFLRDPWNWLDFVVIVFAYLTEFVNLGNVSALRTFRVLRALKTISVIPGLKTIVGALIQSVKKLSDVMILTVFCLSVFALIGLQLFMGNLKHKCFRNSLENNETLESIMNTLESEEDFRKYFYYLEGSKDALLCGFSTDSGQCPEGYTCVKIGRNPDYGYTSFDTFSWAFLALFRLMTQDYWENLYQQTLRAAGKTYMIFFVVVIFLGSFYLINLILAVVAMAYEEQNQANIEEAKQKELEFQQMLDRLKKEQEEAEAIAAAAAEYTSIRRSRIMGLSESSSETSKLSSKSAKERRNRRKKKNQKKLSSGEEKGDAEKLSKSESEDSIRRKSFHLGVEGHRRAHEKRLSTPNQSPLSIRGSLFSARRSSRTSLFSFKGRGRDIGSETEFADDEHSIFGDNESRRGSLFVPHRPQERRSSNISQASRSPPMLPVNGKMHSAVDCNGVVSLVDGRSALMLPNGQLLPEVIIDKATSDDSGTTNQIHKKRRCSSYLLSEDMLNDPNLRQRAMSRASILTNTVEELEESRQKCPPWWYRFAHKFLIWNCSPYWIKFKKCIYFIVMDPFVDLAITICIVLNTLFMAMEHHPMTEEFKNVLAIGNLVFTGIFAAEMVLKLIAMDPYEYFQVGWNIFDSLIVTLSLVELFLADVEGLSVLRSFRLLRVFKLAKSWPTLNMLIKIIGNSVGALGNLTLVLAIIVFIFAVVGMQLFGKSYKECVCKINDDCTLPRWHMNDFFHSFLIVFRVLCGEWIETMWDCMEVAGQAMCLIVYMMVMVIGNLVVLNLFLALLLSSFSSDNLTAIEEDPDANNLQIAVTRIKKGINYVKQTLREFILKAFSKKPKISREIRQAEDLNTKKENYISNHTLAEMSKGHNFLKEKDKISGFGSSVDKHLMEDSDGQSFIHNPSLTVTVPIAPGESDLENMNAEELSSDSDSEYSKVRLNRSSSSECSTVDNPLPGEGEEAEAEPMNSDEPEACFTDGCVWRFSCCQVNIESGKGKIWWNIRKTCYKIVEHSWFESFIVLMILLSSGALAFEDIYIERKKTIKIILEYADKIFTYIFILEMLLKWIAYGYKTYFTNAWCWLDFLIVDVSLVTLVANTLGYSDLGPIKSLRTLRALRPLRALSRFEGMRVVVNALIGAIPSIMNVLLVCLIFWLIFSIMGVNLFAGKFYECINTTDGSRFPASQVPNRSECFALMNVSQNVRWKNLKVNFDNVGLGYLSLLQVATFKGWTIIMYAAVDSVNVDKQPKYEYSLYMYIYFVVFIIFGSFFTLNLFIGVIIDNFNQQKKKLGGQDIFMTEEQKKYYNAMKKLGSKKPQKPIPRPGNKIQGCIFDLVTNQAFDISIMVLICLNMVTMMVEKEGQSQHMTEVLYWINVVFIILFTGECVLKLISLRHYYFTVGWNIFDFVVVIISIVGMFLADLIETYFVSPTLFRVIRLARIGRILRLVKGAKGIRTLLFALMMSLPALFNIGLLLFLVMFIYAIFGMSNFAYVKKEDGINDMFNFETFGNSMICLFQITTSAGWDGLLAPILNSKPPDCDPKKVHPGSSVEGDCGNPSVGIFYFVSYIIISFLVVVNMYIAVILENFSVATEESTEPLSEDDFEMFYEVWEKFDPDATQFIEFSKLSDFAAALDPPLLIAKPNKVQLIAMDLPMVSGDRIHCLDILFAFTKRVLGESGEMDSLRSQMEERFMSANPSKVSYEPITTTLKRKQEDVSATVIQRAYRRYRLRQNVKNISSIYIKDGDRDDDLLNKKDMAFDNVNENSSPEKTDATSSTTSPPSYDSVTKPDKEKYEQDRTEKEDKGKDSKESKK

With `CC[C@H](C)[C@H](NC(=O)[C@H](CCC(=O)O)NC(=O)[C@H](CCCCN)NC(=O)[C@H](CCCNC(=N)N)NC(=O)[C@@H]1CSSC[C@@H]2NC(=O)[C@H](C)NC(=O)[C@H](CCCNC(=N)N)NC(=O)[C@H](CCCCN)NC(=O)[C@H](CO)NC(=O)[C@H](CC(=O)O)NC(=O)[C@@H]3CSSC[C@H](NC(=O)[C@H](CCCNC(=N)N)NC(=O)[C@H](CC(C)C)NC(=O)CNC(=O)[C@H](CCC(=O)O)NC(=O)[C@H](CSSC[C@H](NC(=O)[C@@H](N)Cc4ccc(O)cc4)C(=O)N[C@@H](CCC(N)=O)C(=O)N[C@@H](CCCCN)C(=O)N[C@@H](Cc4c[nH]c5ccccc45)C(=O)N[C@@H](CCSC)C(=O)N[C@@H](Cc4c[nH]c5ccccc45)C(=O)N[C@@H]([C@@H](C)O)C(=O)N3)NC2=O)C(=O)N[C@@H](CCCCN)C(=O)N[C@@H](CC(C)C)C(=O)N[C@@H](Cc2c[nH]c3ccccc23)C(=O)N1)C(N)=O` [SEQ ID NO: 69, [Glu28]JzTx-V(1-29)], on hNav1.6 (PatchXpress), the “selectivity for Nav1.7 over Nav1.6” value was 437 fold.
Consider `CC[C@H](C)[C@H](NC(=O)[C@@H](NC(=O)[C@H](CCCCN)NC(=O)[C@H](CCCNC(=N)N)NC(=O)[C@@H]1CSSC[C@@H]2NC(=O)[C@H](C)NC(=O)[C@H](CCCNC(=N)N)NC(=O)[C@H](CCCCN)NC(=O)[C@H](CO)NC(=O)[C@H](CC(=O)O)NC(=O)[C@@H]3CSSC[C@H](NC(=O)[C@H](CCCNC(=N)N)NC(=O)[C@H](CC(C)C)NC(=O)CNC(=O)[C@H](CCC(=O)O)NC(=O)[C@H](CSSC[C@H](NC(=O)[C@@H](N)Cc4ccc(O)cc4)C(=O)N[C@@H](CCC(N)=O)C(=O)N[C@@H](CCC(=O)O)C(=O)N[C@@H](Cc4c[nH]c5ccccc45)C(=O)N[C@@H](CCSC)C(=O)N[C@@H](Cc4c[nH]c5ccccc45)C(=O)N[C@@H]([C@@H](C)O)C(=O)N3)NC2=O)C(=O)N[C@@H](CCCCN)C(=O)N[C@@H](CC(C)C)C(=O)N[C@@H](Cc2c[nH]c3ccccc23)C(=O)N1)[C@@H](C)CC)C(N)=O` [compound 51], for which, at hNav1.6, the Nav1.6/Nav1.7 is above 12 and the IC50 is above 10 µM. Besides, the IC50 at hNav1.7 [1] (tonic, Table 11) worked out at 847 nM.
With `CCC[C@H](NC(=O)[C@H](CCCCN)NC(=O)[C@H](CCCNC(=N)N)NC(=O)[C@@H]1CSSC[C@@H]2NC(=O)[C@H](C)NC(=O)[C@H](CCCNC(=N)N)NC(=O)[C@H](CCCCN)NC(=O)[C@H](CO)NC(=O)[C@H](CC(=O)O)NC(=O)[C@@H]3CSSC[C@H](NC(=O)[C@H](CCC(=O)O)NC(=O)[C@H](CC(C)C)NC(=O)CNC(=O)[C@H](CCC(=O)O)NC(=O)[C@H](CSSC[C@H](NC(=O)[C@@H](N)Cc4ccc(O)cc4)C(=O)N[C@@H](CCC(N)=O)C(=O)N[C@@H](CCCCN)C(=O)N[C@@H](Cc4c[nH]c5ccccc45)C(=O)N[C@@H](CCSC)C(=O)N[C@@H](Cc4c[nH]c5ccccc45)C(=O)N[C@@H]([C@@H](C)O)C(=O)N3)NC2=O)C(=O)N[C@@H](CCCCN)C(=O)N[C@@H](CC(C)C)C(=O)N[C@@H](Cc2c[nH]c3ccccc23)C(=O)N1)C(=O)N[C@H](C(N)=O)[C@@H](C)CC` [compound 136], the Nav1.4/Nav1.7 at hNav1.7 [2] (Nav1.4 over Nav1.7) is 66 and 34. Further, on hNav1.7 [1] (Table 11), the Nav1.4/Nav1.7 was found to be 405 and the Nav1.5/Nav1.7 was determined as 611.
With `CC[C@H](C)[C@H](NC(=O)[C@H](Cc1ccc(O)cc1)NC(=O)[C@H](CCCCN)NC(=O)[C@H](CCCNC(=N)N)NC(=O)[C@@H]1CSSC[C@@H]2NC(=O)[C@H](C)NC(=O)[C@H](CCCNC(=N)N)NC(=O)[C@H](CCCCN)NC(=O)[C@H](CO)NC(=O)[C@H](CC(=O)O)NC(=O)[C@@H]3CSSC[C@H](NC(=O)[C@H](CCC(=O)O)NC(=O)[C@H](CC(C)C)NC(=O)CNC(=O)[C@H](CCC(=O)O)NC(=O)[C@H](CSSC[C@H](NC(=O)[C@@H](N)Cc4ccc(O)cc4)C(=O)N[C@@H](CCC(N)=O)C(=O)N[C@@H](CCCCN)C(=O)N[C@@H](Cc4c[nH]c5ccccc45)C(=O)N[C@@H](CCSC)C(=O)N[C@@H](Cc4c[nH]c5ccccc45)C(=O)N[C@@H]([C@@H](C)O)C(=O)N3)NC2=O)C(=O)N[C@@H](CCCCN)C(=O)N[C@@H](CC(C)C)C(=O)N[C@@H](Cc2c[nH]c3ccccc23)C(=O)N1)C(N)=O` [compound 137], the Nav1.4/Nav1.7 at hNav1.7 [2] (Nav1.4 over Nav1.7) was found to be 41; at hNav1.7 [1] (Table 11), 1411. The Nav1.5/Nav1.7 on hNav1.7 [1] (Table 11) is 12667.
For the compound `CC[C@H](C)[C@H](NC(=O)[C@H](Cc1ccc(O)cc1)NC(=O)[C@H](CCCCN)NC(=O)[C@H](CCCNC(=N)N)NC(=O)[C@@H]1CSSC[C@@H]2NC(=O)[C@H](C)NC(=O)[C@H](CCCNC(=N)N)NC(=O)[C@H](CCCCN)NC(=O)[C@H](CO)NC(=O)[C@H](CC(=O)O)NC(=O)[C@@H]3CSSC[C@H](NC(=O)[C@H](CCC(=O)O)NC(=O)[C@H](CC(C)C)NC(=O)CNC(=O)[C@H](CCC(=O)O)NC(=O)[C@H](CSSC[C@H](NC(=O)[C@@H](N)Cc4ccc(O)cc4)C(=O)N[C@@H](CCC(N)=O)C(=O)N[C@@H](CCCCN)C(=O)N[C@@H](Cc4ccc(I)cc4)C(=O)N[C@@H](CCSC)C(=O)N[C@@H](Cc4c[nH]c5ccccc45)C(=O)N[C@@H]([C@@H](C)O)C(=O)N3)NC2=O)C(=O)N[C@@H](CCCCN)C(=O)N[C@@H](CC(C)C)C(=O)N[C@@H](Cc2c[nH]c3ccccc23)C(=O)N1)C(N)=O` [compound 192], at hNav1.7 [2] (Table 8), the Nav1.4/Nav1.7 is given as 30. Further, at hNav1.7 [1] (Table 11), the Nav1.4/Nav1.7 is on record as 78 and the Nav1.5/Nav1.7 was above 455.
For `CSCC[C@@H]1NC(=O)[C@H](Cc2c[nH]c3ccccc23)NC(=O)[C@H](CCCCN)NC(=O)[C@H](CCC(N)=O)NC(=O)[C@@H](NC(=O)[C@@H](N)Cc2ccc(O)cc2)CSSC[C@@H]2NC(=O)[C@@H]3CSSC[C@@H](C(=O)N[C@@H](CCCNC(=N)N)C(=O)N[C@@H](CCCCN)C(=O)N[C@@H](Cc4ccc(O)cc4)C(=O)N[C@@H](Cc4cccc5ccccc45)C(N)=O)NC(=O)[C@H](Cc4c[nH]c5ccccc45)NC(=O)[C@H](CC(C)C)NC(=O)[C@H](CCCCN)NC(=O)[C@H](CSSC[C@H](NC(=O)[C@H]([C@@H](C)O)NC(=O)[C@H](Cc4c[nH]c5ccccc45)NC1=O)C(=O)N[C@@H](CC(=O)O)C(=O)N[C@@H](CO)C(=O)N[C@@H](CCCCN)C(=O)N[C@@H](CCCNC(=N)N)C(=O)N[C@@H](C)C(=O)N3)NC(=O)[C@H](CCC(=O)O)NC(=O)[C@H](CC(C)C)NC(=O)CNC(=O)[C@H](CCC(=O)O)NC2=O` [compound 232], the Nav1.4/Nav1.7 on hNav1.7 [2] (Table 8) worked out at 91; on hNav1.7 [1] (Table 11) it was 372. On hNav1.7 [1] (Table 11), the Nav1.5/Nav1.7 was determined as 480.
For the compound `C#CC[C@H](N)C(=O)N[C@@H](Cc1ccc(O)cc1)C(=O)N[C@H]1CSSC[C@@H]2NC(=O)[C@@H]3CSSC[C@@H](C(=O)N[C@@H](CCCNC(=N)N)C(=O)N[C@@H](CCCCN)C(=O)N[C@@H](CCC(=O)O)C(=O)N[C@H](C(N)=O)[C@@H](C)CC)NC(=O)[C@H](Cc4c[nH]c5ccccc45)NC(=O)[C@H](CC(C)C)NC(=O)[C@H](CCCCN)NC(=O)[C@H](CSSC[C@H](NC(=O)[C@H]([C@@H](C)O)NC(=O)[C@H](Cc4c[nH]c5ccccc45)NC(=O)[C@H](CCCC)NC(=O)[C@H](Cc4c[nH]c5ccccc45)NC(=O)[C@H](CCCCN)NC(=O)[C@H](CCC(N)=O)NC1=O)C(=O)N[C@@H](CC(=O)O)C(=O)N[C@@H](CO)C(=O)N[C@@H](CCCCN)C(=O)N[C@@H](CCCNC(=N)N)C(=O)N[C@@H](C)C(=O)N3)NC(=O)[C@H](C)NC(=O)[C@H](CC(C)C)NC(=O)CNC(=O)[C@H](CCC(=O)O)NC2=O` [compound 727], at hNav1.6, the Nav1.6/Nav1.7 was above 11. Also, the IC50 at hNav1.6 was above 10 µM; at hNav1.7 [1] (Table 12, tonic block), 905 nM.
